15 compounds from patent US20220274979A1 (Bayer Pharma Aktiengesellschaft, priority 2018, published 2022) can be followed below.

Read-outs that look alike come from different tables or passages of the source.

For assay [1], the target named is T1, hK-RasG12C - hSOS1 interaction (Homo sapiens, UniProt Q07889).
T1 construct: hSOS1 (amino acid 564-1049); made in house; host or cells: E. coli BL21 (DE3)
T1 sequence (Q07889 with tags, fused parts or gaps): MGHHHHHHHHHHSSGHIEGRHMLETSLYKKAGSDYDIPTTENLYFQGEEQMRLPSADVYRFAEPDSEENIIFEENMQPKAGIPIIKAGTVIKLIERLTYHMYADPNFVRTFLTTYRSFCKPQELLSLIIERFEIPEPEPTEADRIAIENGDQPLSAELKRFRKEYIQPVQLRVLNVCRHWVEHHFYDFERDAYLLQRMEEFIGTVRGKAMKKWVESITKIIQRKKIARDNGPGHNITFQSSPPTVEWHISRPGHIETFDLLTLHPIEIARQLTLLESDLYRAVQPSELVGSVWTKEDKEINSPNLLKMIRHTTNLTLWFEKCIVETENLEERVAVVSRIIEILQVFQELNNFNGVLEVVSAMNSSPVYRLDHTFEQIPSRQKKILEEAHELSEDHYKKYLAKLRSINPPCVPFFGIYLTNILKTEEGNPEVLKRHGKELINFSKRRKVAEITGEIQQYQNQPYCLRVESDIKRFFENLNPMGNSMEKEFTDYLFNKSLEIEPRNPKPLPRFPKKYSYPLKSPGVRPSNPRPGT
The assay is described as follows: Biochemical Assay 1: hK-RasG12C interaction assay with hSOS1 (HTRF). The class given is binding. On the procedure:
Biochemical Assay 1: hK-RasG12C Interaction Assay with hSOS1
This assay quantifies the equilibrium interaction of human SOS1 (hSOS1) with human K-Ras^G12C (hK-RasG12C). Detection of the interaction is achieved by measuring homogenous time-resolved fluorescence resonance energy transfer (HTRF) from antiGST-Europium (FRET donor) bound to GST-K-RasG12C to anti-6His-XL665 bound to His-tagged hSOS1 (FRET-acceptor).
The assay buffer contained 5 mM HEPES pH 7.4 (Applichem), 150 mM NaCl (Sigma), 10 mM EDTA (Promega), 1 mM DTT (Thermofisher), 0.05% BSA Fraction V, pH 7.0, (ICN Biomedicals), 0.0025% (v/v) Igepal (Sigma) and 100 mM KF (FLUKA).
Concentrations of protein batches used were optimized to be within the linear range of the HTRF signal. A Ras working solution was prepared in assay buffer containing typically 10 nM GST-hK-RasG12C and 2 nM antiGST-Eu(K) (Cisbio, France). A SOS1 working solution was prepared in assay buffer containing typically 20 nM His-hSOS1 and 10 nM anti-6His-XL665 (Cisbio, France). An inhibitor control solution was prepared in assay buffer containing 10 nM anti-6His-XL665 without hSOS1.
(§1) Fifty nl of a 100-fold concentrated solution of the test compound in DMSO were transferred into a black microtiter test plate (384 or 1536, Greiner Bio-One, Germany) For this, either a Hummingbird liquid handler (Digilab, Mass., USA) or an Echo acoustic system (Labcyte, Calif., USA) was used.
All steps of the assay were performed at 20° C. A volume of 2.5 μl of the Ras working solution was added to all wells of the test plate using a Multidrop dispenser (Thermo Labsystems). After […] preincubation, 2.5 μl of the SOS1 working solution were added to all wells except for those wells at the side of the test plate that were subsequently filled with 2.5 μl of the inhibitor control solution. After […] incubation the fluorescence was measured with a Pherastar (BMG, Germany) using the HTRF module (excitation 337 nm, emission 1:620 nm, emission 2:665 nm).
(§2) IC50 values were calculated by 4-Parameter fitting using a commercial software package (Genedata Screener, Switzerland).
In general terms: TR-FRET usually uses a lanthanide donor and a delayed reading to cut background.

Assay [2] addresses T2, hSOS1 (hSOS1-mediated loading of hK-RasG12C-GDP) (Homo sapiens, UniProt Q07889).
T2 construct: hSOS1 (amino acid 564-1049); made in house; host or cells: E. coli BL21 (DE3)
T2 sequence (Q07889 with tags, fused parts or gaps): T1 sequence (Q07889 with tags, fused parts or gaps)
Description: Biochemical Assay 3: hK-RasG12C activation assay by hSOS1 (loading with fluorescent GTP analog, HTRF). To be noted: no GTP.
Source text: Biochemical Assay 3: hK-RasG12C Activation Assay by hSOS1
K-Ras is a small GTPase that can bind GDP and GTP. The guanine nucleotide exchange factor SOS1 catalyzes the activation of K-Ras by promoting the exchange of GDP to GTP. SOS1 binds to K-Ras-GDP thereby opening the GDP-binding pocket to facilitate GDP release. Rebinding of excess nucleotide leads to dissociation of the K-Ras-SOS1 intermediate complex leaving K-Ras loaded with the nucleotide.
This assay quantifies human SOS1-(hSOS1-)mediated loading of human K-Ras^G12C-GDP (hK-RasG12C-GDP) with a fluorescent GTP-analog. Detection of successful loading is achieved by measuring homogenous time-resolved fluorescence resonance energy transfer (HTRF) from antiGST-Terbium (FRET donor) bound to GST-hK-RasG12C (see below) to the loaded fluorescent GTP analog (FRET-acceptor).
The fluorescent GTP-analog EDA-GTP-Dy647P1 (2′/3′-O-(2-Aminoethyl-carbamoyl)-guanosine-5′-triphosphate labelled with Dy647P1 (Dyomics GmbH, Germany)) was synthesized by Jena Biosciences GmbH (Germany) and supplied as a 1 mM aqueous solution.
The assay buffer contained 10 mM HEPES pH 7.4 (Applichem), 150 mM NaCl (Sigma), 5 mM MgCl2 (Sigma), 1 mM DTT (Thermofisher), 0.05% BSA Fraction V, pH 7.0, (ICN Biomedicals), 0.0025% (v/v) Igepal (Sigma).
Concentrations of protein batches used were optimized to be within the linear range of the HTRF signal. A hRas working solution was prepared in assay buffer containing typically 100 nM GST-hK-RasG12C and 2 nM antiGST-Tb (Cisbio, France). A hSOS1 working solution was prepared in assay buffer containing typically 20 nM hSOS1 and 200 nM EDA-GTP-Dy647P1. An inhibitor control solution was prepared in assay buffer containing 200 nM EDA-GTP-Dy647P1 without hSOS1.
as §1
All steps of the assay were performed at 20° C. A volume of 2.5 μl of the hRas working solution was added to all wells of the test plate using a Multidrop dispenser (Thermo Labsystems). After 10 min. preincubation, 2.5 μl of the hSOS1 working solution were added to all wells except for those wells at the side of the test plate that were subsequently filled with 2.5 μl of the inhibitor control solution. After […] incubation the fluorescence was measured with a Pherastar (BMG, Germany) using the HTRF module (excitation 337 nm, emission 1: 620 nm, emission 2:665 nm).
as §2

As to `CC(=O)NC1CCN(c2cc3c(N[C@H](C)c4cccc(Br)c4)nc(C)nc3cn2)C1` (mixture of isomers) [Example 42, N-[1-(4-{[(1R)-1-(3-bromophenyl)ethyl]amino}-2-methylpyrido[3,4-d]pyrimidin-6-yl)pyrrolidin-3-yl]acetamide], the IC50 was 187 nM in assay [1] (values expressed as IC50) and 366 nM in assay [2].
For `Cc1nc(NC(C)c2ccc(-c3ccccc3CN(C)C)s2)c2cc(C3CCN(C)C3=O)ncc2n1` (mixture of isomers) [Example 69, 3-(4-{[1-(5-{2-[(dimethylamino)methyl]phenyl}thiophen-2-yl)ethyl]amino}-2-methylpyrido[3,4-d]pyrimidin-6-yl)-1-methylpyrrolidin-2-one], the IC50 in assay [1] (values expressed as IC50) amounted to 62.6 nM; in assay [2] it was 141 nM.
`Cc1nc(NC(C)c2ccc(-c3ccccc3CN(C)C)s2)c2cc(C3(O)CCN(C)C3=O)ncc2n1` (mixture of isomers) [Example 85, 3-(4-{[1-(5-{2-[(dimethylamino)methyl]phenyl}thiophen-2-yl)ethyl]amino}-2-methylpyrido[3,4-d]pyrimidin-6-yl)-3-hydroxy-1-methylpyrrolidin-2-one]: the IC50 was 83.4 nM in assay [1] and 212 nM in assay [2].
Turning to `CCOc1cc2c(NC(C)c3cccc4sccc34)nc(C)nc2cn1` (stereo not drawn) [Example 3, N-[1-(1-benzothiophen-4-yl)ethyl]-6-ethoxy-2-methylpyrido[3,4-d]pyrimidin-4-amine], the IC50 turned out to be 215 nM in assay [1] (values expressed as IC50) and 355 nM in assay [2].
For `COc1cc2c(NC(C)c3cccc4sccc34)nc(C)nc2cn1` (stereo not drawn) [Example 4, N-[1-(1-benzothiophen-4-yl)ethyl]-6-methoxy-2-methylpyrido[3,4-d]pyrimidin-4-amine], the IC50 in assay [1] (values expressed as IC50) turned out to be 355 nM; in assay [2] it was 555 nM.
The matching figures for `CCOc1cc2c(N[C@H](C)c3cccc(Br)c3)nc(C)nc2cn1` [Example 5, N-[(1R)-1-(3-bromophenyl)ethyl]-6-ethoxy-2-methylpyrido[3,4-d]pyrimidin-4-amine]: 491 nM and 2150 nM.
On the same counts, the results for `CCOc1cc2c(N[C@H](C)c3cccc(Cl)c3)nc(C)nc2cn1` [Example 6] are 393 nM and 1690 nM.
Take `CCOc1cc2c(N[C@H](C)c3cccc(S(C)(=O)=O)c3)nc(C)nc2cn1` [Example 7, 6-ethoxy-2-methyl-N-{(1R)-1-[3-(methylsulfonyl)phenyl]ethyl}pyrido[3,4-d]pyrimidin-4-amine]: the IC50 was 633 nM in assay [1] (values expressed as IC50) and 2380 nM in assay [2].
The matching figures for `COc1cc2c(N[C@H](C)c3ccc(F)c(Cl)c3)nc(C)nc2cn1` [Example 8]: 5490 nM and greater than 20000 nM.
On to `Cc1nc(N[C@H](C)c2ccc(F)cc2)c2cc(F)ncc2n1` [Example 9], for which, in assay [1] (read-out: Assay 1 (hKRAS, hSOS Interaction) activity (expressed as IC50, or as % inhibition at 20 μM)), the inhibition at 20 µM was 54%. Besides, the IC50 in assay [2] was greater than 20000 nM.
Consider `Cc1nc(N[C@H](C)c2ccc(F)cc2)c2cc(OCC3CCOCC3)ncc2n1` [Example 11, N-[1R)-1-(4-fluorophenypethyl]-2-methyl-6-(tetrahydro-2H-pyran-4-ylmethoxy)-pyrido[3,4-d]pyrimidin-4-amine], for which the half-inhibitory concentration (IC50) in assay [1] (values expressed as IC50) came to 1790 nM; in assay [2], 2490 nM.
The matching figures for `COc1cc2c(N[C@H](C)c3ccc(F)c(C4CC4)c3)nc(C)nc2cn1` [Example 12]: 5840 nM and 8170 nM.
`CCOc1cc2c(N[C@H](C)c3ccc(Br)cc3)nc(C)nc2cn1` [Example 13, N-[(1R)-1-(4-bromophenyl)ethyl]-6-ethoxy-2-methylpyrido[3,4-d]pyrimidin-4-amine]: the IC50 stood at 1220 nM in assay [1] (values expressed as IC50) and 7980 nM in assay [2].
On to `COc1cc2c(NC(C)c3cccc4c3cnn4C)nc(C)nc2cn1` (stereo not drawn) [Example 14, 6-methoxy-2-methyl-N-[1-(1-methyl-1H-indazol-4-yl)ethyl]pyrido[3,4-d]pyrimidin-4-amine], for which the IC50 was determined as 1650 nM in assay [1] (values expressed as IC50) and 12600 nM in assay [2].
On the same counts, the results for `Cc1nc(N[C@H](C)c2ccc(F)cc2)c2cc(OC(C)C)ncc2n1` [Example 15] are 1480 nM and 8790 nM.

By IC50 is commonly meant the concentration needed to halve the response being measured. A low value points to higher potency. Usually inhibition stands for the percentage by which the read-out fell short of the control.
